Measured values reported in PubChem BioAssay AID248 (DTP/NCI, 2004).
“And” between values parts separate entries of the source, which are not always exact repeats. Identical values can stand only once. Toxic doses and inconclusive results are not listed.

Tested on: L1210 leukemia ip in BDF1 mice, survival T/C
Assay: NCI In Vivo Anticancer Drug Screen. Data for tumor model L1210 Leukemia (intraperitoneal) in B6D2F1 (BDF1) mice
Conditions: higher = longer survival
In short: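 Each compound was tested against a transplantable tumor grown in mice. The endpoint was survival, with treated animals benchmarked against vehicle controls as a simple ratio.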

[1] = endpoint: mean survival time, dose: 100.0 mg/kg/injection, schedule: Q01DX009 (ip), vehicle: saline with Tween-80
[2] = endpoint: mean survival time, dose: 200.0 mg/kg/injection, schedule: Q01DX009 (ip), vehicle: saline with Tween-80
[3] = endpoint: mean survival time, dose: 400.0 mg/kg/injection, schedule: Q01DX009 (ip), vehicle: saline with Tween-80

Compound: COc1cc2c(c(OC)c1OC)-c1ccc(OC)c(=O)cc1[C@@H](NC(C)=O)CC2
- T/C (endpoint: mean survival time, dose: 0.01 mg/kg/injection, schedule: Q01DX010 (ip), vehicle: saline): 96 % of control and 97 % of control
- T/C (endpoint: mean survival time, dose: 0.02 mg/kg/injection, schedule: Q01DX010 (ip), vehicle: saline): 93 % of control and 103 % of control
- T/C (endpoint: mean survival time, dose: 0.04 mg/kg/injection, schedule: Q01DX010 (ip), vehicle: saline): 102 % of control and 103 % of control
- T/C (endpoint: mean survival time, dose: 0.06 mg/kg/injection, schedule: Q01DX015 (ip), vehicle: saline): 98 % of control
- T/C (endpoint: mean survival time, dose: 0.08 mg/kg/injection, schedule: Q01DX010 (ip), vehicle: saline): 102 % of control and 115 % of control
- T/C (endpoint: mean survival time, dose: 0.09 mg/kg/injection, schedule: Q01DX015 (ip), vehicle: saline): 100 % of control
- T/C (endpoint: mean survival time, dose: 0.09 mg/kg/injection, schedule: Q02DX008 (ip), vehicle: saline): 97 % of control
- T/C (endpoint: mean survival time, dose: 0.1 mg/kg/injection, schedule: Q## X032 (ip), vehicle: saline): 98 % of control
- T/C (endpoint: mean survival time, dose: 0.13 mg/kg/injection, schedule: Q01DX009 (ip), vehicle: saline): 110 % of control
- T/C (endpoint: mean survival time, dose: 0.13 mg/kg/injection, schedule: Q01DX015 (ip), vehicle: saline): 104 % of control
- T/C (endpoint: mean survival time, dose: 0.13 mg/kg/injection, schedule: Q02DX008 (ip), vehicle: saline): 97 % of control
- T/C (endpoint: mean survival time, dose: 0.16 mg/kg/injection, schedule: Q## X032 (ip), vehicle: saline): 97 % of control
- T/C (endpoint: mean survival time, dose: 0.2 mg/kg/injection, schedule: Q01DX015 (ip), vehicle: saline): 113 % of control
- T/C (endpoint: mean survival time, dose: 0.2 mg/kg/injection, schedule: Q02DX008 (ip), vehicle: saline): 103 % of control
- T/C (endpoint: mean survival time, dose: 0.24 mg/kg/injection, schedule: Q## X032 (ip), vehicle: saline): 100 % of control
- T/C (endpoint: mean survival time, dose: 0.25 mg/kg/injection, schedule: Q01DX005 (oral), vehicle: saline): 102 % of control
- T/C (endpoint: mean survival time, dose: 0.25 mg/kg/injection, schedule: Q01DX009 (ip), vehicle: saline): 113 % of control
- T/C (endpoint: mean survival time, dose: 0.25 mg/kg/injection, schedule: Q04DX003 (ip), vehicle: saline): 121 % of control
- T/C (endpoint: mean survival time, dose: 0.3 mg/kg/injection, schedule: Q01DX015 (ip), vehicle: saline): 117 % of control
- T/C (endpoint: mean survival time, dose: 0.3 mg/kg/injection, schedule: Q02DX008 (ip), vehicle: saline): 106 % of control
- T/C (endpoint: mean survival time, dose: 0.36 mg/kg/injection, schedule: Q## X032 (ip), vehicle: saline): 102 % of control
- T/C (endpoint: mean survival time, dose: 0.45 mg/kg/injection, schedule: Q02DX008 (ip), vehicle: saline): 120 % of control
- T/C (endpoint: mean survival time, dose: 0.5 mg/kg/injection, schedule: Q01DX001 (iv), vehicle: saline): 93 % of control
- T/C (endpoint: mean survival time, dose: 0.5 mg/kg/injection, schedule: Q01DX005 (oral), vehicle: saline): 101 % of control
- T/C (endpoint: mean survival time, dose: 0.5 mg/kg/injection, schedule: Q01DX009 (ip), vehicle: saline): 108 % of control
- T/C (endpoint: mean survival time, dose: 0.5 mg/kg/injection, schedule: Q04DX003 (ip), vehicle: saline): 116 % of control
- T/C (endpoint: mean survival time, dose: 0.5 mg/kg/injection, schedule: Q## X032 (ip), vehicle: saline): 105 % of control
- T/C (endpoint: mean survival time, dose: 0.54 mg/kg/injection, schedule: Q04DX004 (ip), vehicle: saline): 112 % of control
- T/C (endpoint: mean survival time, dose: 0.54 mg/kg/injection, schedule: Q## X032 (ip), vehicle: saline): 105 % of control
- T/C (endpoint: mean survival time, dose: 0.6 mg/kg/injection, schedule: Q## X004 (ip), vehicle: saline): 112 % of control
- T/C (endpoint: mean survival time, dose: 0.8 mg/kg/injection, schedule: Q04DX004 (ip), vehicle: saline): 114 % of control
- T/C (endpoint: mean survival time, dose: 0.8 mg/kg/injection, schedule: Q## X032 (ip), vehicle: saline): 114 % of control
- T/C (endpoint: mean survival time, dose: 0.9 mg/kg/injection, schedule: Q## X004 (ip), vehicle: saline): 114 % of control
- T/C (endpoint: mean survival time, dose: 1.0 mg/kg/injection, schedule: Q01DX001 (iv), vehicle: saline): 97 % of control
- T/C (endpoint: mean survival time, dose: 1.0 mg/kg/injection, schedule: Q01DX005 (oral), vehicle: saline): 100 % of control
- T/C (endpoint: mean survival time, dose: 1.0 mg/kg/injection, schedule: Q01DX009 (ip), vehicle: saline): 122 % of control
- T/C (endpoint: mean survival time, dose: 1.0 mg/kg/injection, schedule: Q04DX003 (ip), vehicle: saline): 104 % of control
- T/C (endpoint: mean survival time, dose: 1.2 mg/kg/injection, schedule: Q04DX004 (ip), vehicle: saline): 116 % of control
- T/C (endpoint: mean survival time, dose: 1.25 mg/kg/injection, schedule: Q01DX001 (ip), vehicle: saline): 101 % of control and 114 % of control and 123 % of control
- T/C (endpoint: mean survival time, dose: 1.3 mg/kg/injection, schedule: Q## X004 (ip), vehicle: saline): 121 % of control
- T/C (endpoint: mean survival time, dose: 1.6 mg/kg/injection, schedule: Q## X032 (ip), vehicle: saline): 124 % of control
- T/C (endpoint: mean survival time, dose: 2.0 mg/kg/injection, schedule: Q01DX001 (iv), vehicle: saline): 107 % of control
- T/C (endpoint: mean survival time, dose: 2.0 mg/kg/injection, schedule: Q01DX001 (oral), vehicle: saline): 91 % of control
- T/C (endpoint: mean survival time, dose: 2.0 mg/kg/injection, schedule: Q01DX005 (oral), vehicle: saline): 92 % of control
- T/C (endpoint: mean survival time, dose: 2.0 mg/kg/injection, schedule: Q## X004 (ip), vehicle: saline): 156 % of control
- T/C (endpoint: mean survival time, dose: 2.5 mg/kg/injection, schedule: Q01DX001 (ip), vehicle: saline): 118 % of control and 124 % of control
- T/C (endpoint: mean survival time, dose: 3.6 mg/kg/injection, schedule: Q## X032 (ip), vehicle: saline): 102 % of control
- T/C (endpoint: mean survival time, dose: 4.0 mg/kg/injection, schedule: Q01DX001 (iv), vehicle: saline): 97 % of control
- T/C (endpoint: mean survival time, dose: 4.0 mg/kg/injection, schedule: Q01DX001 (oral), vehicle: saline): 100 % of control
- T/C (endpoint: mean survival time, dose: 4.0 mg/kg/injection, schedule: Q08DX002 (ip), vehicle: saline): 108 % of control
- T/C (endpoint: mean survival time, dose: 5.0 mg/kg/injection, schedule: Q01DX001 (ip), vehicle: saline): 94 % of control and 118 % of control
- T/C (endpoint: mean survival time, dose: 8.0 mg/kg/injection, schedule: Q01DX001 (oral), vehicle: saline): 92 % of control
- T/C (endpoint: mean survival time, dose: 31.2 micrograms/kg/injection, schedule: Q03HX024 (ip), vehicle: saline): 97 % of control
- T/C (endpoint: mean survival time, dose: 62.5 micrograms/kg/injection, schedule: Q01DX005 (iv), vehicle: saline): 100 % of control
- T/C (endpoint: mean survival time, dose: 62.5 micrograms/kg/injection, schedule: Q01DX009 (ip), vehicle: saline): 101 % of control
- T/C (endpoint: mean survival time, dose: 62.5 micrograms/kg/injection, schedule: Q03HX016 (ip), vehicle: saline): 102 % of control
- T/C (endpoint: mean survival time, dose: 62.5 micrograms/kg/injection, schedule: Q03HX024 (ip), vehicle: saline): 104 % of control
- T/C (endpoint: mean survival time, dose: 125.0 micrograms/kg/injection, schedule: Q01DX005 (iv), vehicle: saline): 98 % of control
- T/C (endpoint: mean survival time, dose: 125.0 micrograms/kg/injection, schedule: Q01DX009 (ip), vehicle: saline): 115 % of control
- T/C (endpoint: mean survival time, dose: 125.0 micrograms/kg/injection, schedule: Q03HX008 (ip), vehicle: saline): 123 % of control
- T/C (endpoint: mean survival time, dose: 125.0 micrograms/kg/injection, schedule: Q03HX016 (ip), vehicle: saline): 107 % of control
- T/C (endpoint: mean survival time, dose: 125.0 micrograms/kg/injection, schedule: Q03HX024 (ip), vehicle: saline): 109 % of control
- T/C (endpoint: mean survival time, dose: 250.0 micrograms/kg/injection, schedule: Q01DX005 (iv), vehicle: saline): 98 % of control
- T/C (endpoint: mean survival time, dose: 250.0 micrograms/kg/injection, schedule: Q03HX016 (ip), vehicle: saline): 121 % of control
- T/C (endpoint: mean survival time, dose: 250.0 micrograms/kg/injection, schedule: Q03HX024 (ip), vehicle: saline): 96 % of control
- T/C (endpoint: mean survival time, dose: 500.0 micrograms/kg/injection, schedule: Q01DX005 (iv), vehicle: saline): 100 % of control
- T/C (endpoint: mean survival time, dose: 1000.0 micrograms/kg/injection, schedule: Q01DX005 (iv), vehicle: saline): 107 % of control
- T/C (endpoint: mean survival time, dose: 1000.0 micrograms/kg/injection, schedule: Q01DX009 (ip), vehicle: saline): 87 % of control
- T/C (endpoint: median survival time, dose: 0.02 mg/kg/injection, schedule: Q01DX009 (ip), vehicle: saline): 93 % of control and 100 % of control
- T/C (endpoint: median survival time, dose: 0.04 mg/kg/injection, schedule: Q01DX009 (ip), vehicle: saline): 100 % of control
- T/C (endpoint: median survival time, dose: 0.08 mg/kg/injection, schedule: Q01DX009 (ip), vehicle: saline): 106 % of control and 111 % of control
- T/C (endpoint: median survival time, dose: 0.16 mg/kg/injection, schedule: Q01DX009 (ip), vehicle: saline): 112 % of control

Compound: Cc1nccn1C(/C(=N/O)c1ccccc1)c1ccccc1 (centres undefined)
- T/C [1]: 96 % of control
- T/C [2]: 96 % of control
- T/C [3]: 94 % of control

Compound: O=C1Nc2ccccc2/C1=N/N=C/c1cc(Cl)cc(Cl)c1O
- T/C [1]: 90 % of control
- T/C (endpoint: mean survival time, dose: 100.0 mg/kg/injection, schedule: Q04DX003 (ip), vehicle: saline with Tween-80): 90 % of control
- T/C [2]: 92 % of control
- T/C (endpoint: mean survival time, dose: 200.0 mg/kg/injection, schedule: Q04DX003 (ip), vehicle: saline with Tween-80): 90 % of control
- T/C [3]: 91 % of control
- T/C (endpoint: mean survival time, dose: 400.0 mg/kg/injection, schedule: Q04DX003 (ip), vehicle: saline with Tween-80): 91 % of control

Compound: CCC[CH2][Sn]([Br])([c]1ccccc1)[c]1ccccc1
- T/C (endpoint: mean survival time, dose: 0.39 mg/kg/injection, schedule: Q01DX009 (ip), vehicle: saline with Tween-80): 92 % of control
- T/C (endpoint: mean survival time, dose: 0.78 mg/kg/injection, schedule: Q01DX009 (ip), vehicle: saline with Tween-80): 101 % of control
- T/C (endpoint: mean survival time, dose: 1.56 mg/kg/injection, schedule: Q01DX009 (ip), vehicle: saline with Tween-80): 89 % of control
